According to paper PMC11601581 (bioRxiv, 2024):

Molecular target: NTSR1 (Homo sapiens, UniProt P30989)
Assay: BRET1 β-arrestin1/2 recruitment to NTSR1, ligand alone
Assay type: cell-based

Sequence of NTSR1 (P30989 whole entry): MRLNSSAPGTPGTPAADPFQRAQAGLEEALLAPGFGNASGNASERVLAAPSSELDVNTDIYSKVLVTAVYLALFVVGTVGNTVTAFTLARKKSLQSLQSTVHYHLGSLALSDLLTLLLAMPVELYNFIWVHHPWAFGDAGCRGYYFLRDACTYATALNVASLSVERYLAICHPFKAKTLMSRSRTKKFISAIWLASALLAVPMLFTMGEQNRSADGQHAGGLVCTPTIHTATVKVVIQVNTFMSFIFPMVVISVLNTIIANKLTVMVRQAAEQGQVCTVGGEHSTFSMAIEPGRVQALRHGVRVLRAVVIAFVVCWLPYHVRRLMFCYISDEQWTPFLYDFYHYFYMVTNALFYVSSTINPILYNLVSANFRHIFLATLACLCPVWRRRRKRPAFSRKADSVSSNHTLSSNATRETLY

COc1cccc(OC)c1-c1cc(C(=O)NC2(C(=O)O)C3CC4CC(C3)CC2C4)nn1-c1ccc(C(=O)N(C)CCCN(C)C)cc1C(C)C (centres unmarked) [SR142948A]
agonist efficacy (β-arrestin1): without effect | agonist efficacy (β-arrestin2): without effect
